Several values for one entry are separate records, joined by “and”; a condition that tells them apart may be missing. Equal entries are not always repeated. Where two headings read alike, the source gives them in different places.
Key:
ERK1 = molecular target: T1, ERK1 (Homo sapiens, UniProt P27361); assay: DSF thermal shift; assay type: binding; settings: 10 µM inhibitor; read-out: Tm shift
T1 construct: purchased Nanosyn (enzymatic panel); SGC in-house recombinant human kinases (DSF panel); Invitrogen (ALK1-6)
Summary of the method: (§1)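 Melting experiments ran on a qPCR machine using 1–2 µM purified recombinant human protein and 10 µM inhibitor.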

Haspin = molecular target: T2, Haspin (Homo sapiens, UniProt Q8TF76); assay: DSF thermal shift; assay type: binding; settings: 10 µM inhibitor; read-out: Tm shift
T2 construct: purchased Nanosyn (enzymatic panel); SGC in-house recombinant human kinases (DSF panel); Invitrogen (ALK1-6)
T2 sequence (Q8TF76 1-798): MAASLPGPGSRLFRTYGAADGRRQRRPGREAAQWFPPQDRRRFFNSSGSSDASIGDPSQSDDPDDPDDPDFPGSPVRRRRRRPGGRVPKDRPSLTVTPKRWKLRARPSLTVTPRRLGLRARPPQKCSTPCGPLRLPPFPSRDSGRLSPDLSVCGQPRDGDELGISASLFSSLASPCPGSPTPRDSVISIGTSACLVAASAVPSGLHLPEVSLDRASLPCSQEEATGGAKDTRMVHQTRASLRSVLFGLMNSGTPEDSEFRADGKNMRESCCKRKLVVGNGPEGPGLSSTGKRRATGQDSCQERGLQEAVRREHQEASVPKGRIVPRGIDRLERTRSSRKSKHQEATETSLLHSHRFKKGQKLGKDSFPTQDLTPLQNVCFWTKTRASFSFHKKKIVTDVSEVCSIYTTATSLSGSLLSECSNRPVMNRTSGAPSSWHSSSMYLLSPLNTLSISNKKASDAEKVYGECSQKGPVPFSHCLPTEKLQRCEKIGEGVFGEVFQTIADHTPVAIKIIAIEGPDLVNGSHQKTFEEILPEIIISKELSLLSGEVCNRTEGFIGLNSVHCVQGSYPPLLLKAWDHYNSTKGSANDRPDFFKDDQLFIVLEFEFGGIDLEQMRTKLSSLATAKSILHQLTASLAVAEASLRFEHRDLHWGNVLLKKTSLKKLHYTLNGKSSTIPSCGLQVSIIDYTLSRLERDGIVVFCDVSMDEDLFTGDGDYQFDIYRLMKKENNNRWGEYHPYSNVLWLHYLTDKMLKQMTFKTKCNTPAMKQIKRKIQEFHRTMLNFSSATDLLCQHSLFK
Summary of the method: as §1

YANK1 = molecular target: T3, YANK1 (Homo sapiens, UniProt Q8WU08); assay: DSF thermal shift; assay type: binding; settings: 10 µM inhibitor; read-out: Tm shift
T3 construct: purchased Nanosyn (enzymatic panel); SGC in-house recombinant human kinases (DSF panel); Invitrogen (ALK1-6)
Summary of the method: as §1

KDR = system: KDR; set-up: method as in PMID 20020776; settings: read-out: reported KDR IC50; cited from earlier work
SIK = assay: Nanosyn kinase profiling; assay type: biochemical, human
Description: (§2) Percentage inhibition was determined for each kinase at both 0.1 µM and 1 µM inhibitor concentration (supplemental Table S2). […]. […]. When visualized on a kinase phylogenetic tree, these were primarily clustered within the receptor tyrosine kinases (TKs) as well as the calmodulin-dependent kinases (CAMKs) (Figure 2C).
(§3) Inhibitor selectivity profiling against 200 human kinases at 0.1 and 1 µM inhibitor concentration was performed by Nanosyn (www.nanosyn.com).

ActRIIA (ACVR2) = ActRIIA (ACVR2) (Homo sapiens, UniProt P27037); assay: Kinase-Glo assay; assay type: biochemical; settings: at the Km value of ATP, duplicate
Description: A kinase assay for ActRIIA (ACVR2) was performed using Kinase-Glo® (Promega) as per manufacturer’s instructions. […] Inhibitors were added at concentrations between 0 and 10 µM in kinase reaction buffer and tested in duplicate. At 15 min, 30 min, 1 hr, 2 hr, and 3 hr 20 µL aliquots of the reaction mixture was transferred to a 384-well plate and 20 µL of Kinase-Glo® was added and allowed to rest for 10 min to quench the reaction and produce light which was measured using a Spectramax L luminometer (Molecular Devices).

[1] = system: BMP4 induced Smad1/5/8 phosphorylation in C2C12 cells; assay: BMP4 induced Smad1/5/8 phosphorylation, Western blot; assay type: cell-based; settings: for IC50: Mus musculus
Description: (§4) C2C12 and HEK293 cells were grown in DMEM supplemented with 10% FCS (PAA) and seeded at a density of 1 x 10^5 cells per well in 6-well plates. The next day the cells were starved in DMEM containing 1% FCS for 5 hours. Inhibitors were added at the indicated concentrations for 30 minutes followed by 10 ng/mL BMP4 (Peprotech), 100 ng/mL BMP6 (Peprotech), 100 ng/mL Activin A (Peprotech) or 2 ng/mL TGF-β1 (Cell Signaling) for 1 hour. Cells were washed in PBS and lysed on ice for 30 minutes in lysis buffer (20 mM Tris-HCl pH 7.5, 150 mM NaCl, 1% Triton X-100, 25 mM NaF, 25 mM Na β-glycerophosphate, 2 mM Na3VO4) containing protease inhibitors (Roche). Protein concentration in the clarified lysate was determined by Bradford Assay (Pierce) and 15 µg run on 4–12% Bis-Tris gel (Biorad). The protein was transferred onto nitrocellulose membrane (GE Healthcare) and probed with the relevant antibody at 4°C overnight (Cell Signaling: anti-Smad 1 (#9743), anti-P-Smad 1/5/8 (#9511), anti-Smad 2 (#5339), anti-P-Smad 2 (#3101). After subsequent incubation with HRP-conjugated anti-rabbit antibody, protein bands were detected using ECL (Pierce) and an LAS4000 image reader. Cells were purchased originally from the European Collection of Cell Cultures (ECACC) available through Sigma.

[2] = system: BMP4 response (BRE-luciferase) in C2C12 cells; assay: BRE-luciferase reporter assay; assay type: cell-based
Description: C2C12 cells were co-transfected using lipofectamine 2000 with BRE-luciferase and Renilla Luciferase pRLTK (Promega) following the manufacturer’s instructions. 16 hours post transfection cells were starved in DMEM containing 1% FCS for 5 hours. Inhibitors were added to triplicate wells at the indicated concentrations for 30 minutes, followed by overnight stimulation with 10 ng/ml BMP4 (Peprotech). Luciferase activities were determined according to the Dual-Luciferase® Reporter Assay System (Promega) using Renilla for normalization of transfection efficiency.

[3] = system: BMP6-induced Smad1/5/8 phosphorylation in C2C12 cells; assay: BMP6-induced Smad1/5/8 phosphorylation, Western blot; assay type: cell-based; settings: for inhibition of BMP6-induced Smad1/5/8 phosphorylation: qualitative
Description: as §4

[4] = system: TGF-β-induced phosphorylation of Smad2 in C2C12 cells; assay: TGF-β-induced phosphorylation of Smad2, Western blot; assay type: cell-based; settings: qualitative
Description: as §4

[5] = system: Activin A-induced P-Smad2 in HEK293 cells; assay: Activin A-induced P-Smad2, Western blot; assay type: cell-based; settings: for inhibition of Smad2 phosphorylation: 0.5 µM, Activin A; for inhibition of Activin A-induced P-Smad2: qualitative
Description: as §4

[6] = system: panel of 200 human kinases; assay: Kinome-wide selectivity, number of kinases inhibited; assay type: biochemical; settings: 1 µM inhibitor; 200 kinases
Description: as §2, §3

T3 sequence (Q8WU08 whole entry): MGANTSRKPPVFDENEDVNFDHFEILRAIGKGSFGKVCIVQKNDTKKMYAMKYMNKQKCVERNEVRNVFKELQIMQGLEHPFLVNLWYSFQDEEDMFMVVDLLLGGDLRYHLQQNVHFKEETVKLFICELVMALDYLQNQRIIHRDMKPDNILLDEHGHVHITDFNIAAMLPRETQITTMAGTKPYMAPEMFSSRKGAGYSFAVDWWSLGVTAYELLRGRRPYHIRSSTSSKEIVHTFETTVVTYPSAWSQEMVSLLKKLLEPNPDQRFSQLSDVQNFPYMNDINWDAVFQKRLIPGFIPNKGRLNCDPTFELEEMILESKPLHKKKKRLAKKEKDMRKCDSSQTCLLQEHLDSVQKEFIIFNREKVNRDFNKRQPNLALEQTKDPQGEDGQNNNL
T1 sequence (P27361 whole entry): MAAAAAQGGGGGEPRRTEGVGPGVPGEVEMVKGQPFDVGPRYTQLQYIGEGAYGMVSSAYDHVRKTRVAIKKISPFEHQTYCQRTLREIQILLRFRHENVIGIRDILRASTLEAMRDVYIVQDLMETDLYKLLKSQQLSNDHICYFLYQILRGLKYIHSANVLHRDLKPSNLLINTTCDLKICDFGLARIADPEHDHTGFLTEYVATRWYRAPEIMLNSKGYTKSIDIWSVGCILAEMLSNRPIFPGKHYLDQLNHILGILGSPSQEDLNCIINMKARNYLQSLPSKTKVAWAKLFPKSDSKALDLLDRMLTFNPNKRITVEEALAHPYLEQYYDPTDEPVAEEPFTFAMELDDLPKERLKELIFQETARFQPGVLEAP
ActRIIA (ACVR2), sequence (P27037 20-513): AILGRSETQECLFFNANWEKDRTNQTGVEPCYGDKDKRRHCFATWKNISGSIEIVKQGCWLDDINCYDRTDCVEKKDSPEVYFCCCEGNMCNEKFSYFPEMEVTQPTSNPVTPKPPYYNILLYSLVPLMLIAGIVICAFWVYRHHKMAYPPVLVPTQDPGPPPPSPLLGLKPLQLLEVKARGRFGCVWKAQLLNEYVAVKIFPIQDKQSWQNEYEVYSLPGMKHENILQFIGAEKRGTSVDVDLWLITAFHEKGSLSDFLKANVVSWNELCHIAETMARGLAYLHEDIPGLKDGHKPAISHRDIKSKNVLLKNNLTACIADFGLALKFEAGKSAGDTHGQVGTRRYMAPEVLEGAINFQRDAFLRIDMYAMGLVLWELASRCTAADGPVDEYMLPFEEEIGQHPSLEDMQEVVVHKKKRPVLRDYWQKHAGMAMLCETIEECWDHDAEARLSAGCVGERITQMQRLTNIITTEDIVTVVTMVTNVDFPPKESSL

| Compound | ΔTm at 10 µM (ERK1) | ΔTm at 10 µM (Haspin) | ΔTm at 10 µM (YANK1) | IC50 (KDR) | Percentage inhibition (SIK; 1 µM inhibitor) | IC50 (ActRIIA (ACVR2)) | inhibition of BMP6-induced Smad1/5/8 phosphorylation [3] | effect on TGF-β-induced phosphorylation of Smad2 [4] | inhibition of Smad2 phosphorylation [5] | inhibition of Activin A-induced P-Smad2 [5] | other results |
| --- | --- | --- | --- | --- | --- | --- | --- | --- | --- | --- | --- |
| c1cc(-c2cnn3cc(-c4ccc(OCCN5CCCCC5)cc4)cnc23)ccn1 [Dorsomorphin] | 0 °C | 2.3 °C | 0.5 °C | 25 nM |  |  |  |  |  |  |  |
| COc1cc(-c2cc(-c3cccc(O)c3)cnc2N)cc(OC)c1OC [K02288, 3-[6-amino-5-(3,4,5-trimethoxy-phenyl)-pyridin-3-yl]-phenol] | 0.2 °C | 0.3 °C | 0.2 °C |  | 57% | 220 nM | potently inhibited | no effect | near complete inhibition | weakly inhibited | Percentage inhibition (SIK; 0.1 µM inhibitor): 9.4%; activity weaker than control compound LDN-193189 ([1]; C2C12 cells, BMP4, P-Smad1/5/8): 10 fold; IC50 ([1]; C2C12 cells, BMP4 stimulation, read-out: apparent IC50, Smad1/5/8 phosphorylation): 100 nM; activity weaker than control compound LDN-193189 ([2]; C2C12 cells, BMP4, BRE-luciferase): 10 fold; inhibition of Smad1/5/8 phosphorylation ([3]; 50 nM, BMP6): near complete inhibition; IC50 ([3]; Mus musculus, read-out: IC50 against BMP6 signaling): < 50 nM; further kinases with >50% inhibition (beyond ABL and ARG) [6]: 6 kinases |
| c1ccc2c(-c3cnn4cc(-c5ccc(N6CCNCC6)cc5)cnc34)ccnc2c1 [LDN-193189] | 0.2 °C | 0.4 °C | 1.2 °C | 215 nM | 96% | 210 nM | potently inhibited | no effect | near complete inhibition | weakly inhibited | Percentage inhibition (SIK; 0.1 µM inhibitor, 0.1 µM): 63% and > 50%; IC50 ([1]; C2C12, read-out: apparent IC50, Smad1/5/8 phosphorylation): 10 nM; IC50 ([2]; Mus musculus, C2C12, read-out: IC50, BRE-luciferase): 10 nM; number of kinases with >50% inhibition [6]: 21 kinases |
